Test systems include A549 NSCLC; EKVX NSCLC; HCC-2998 colon; HOP-62 NSCLC; IGROV1 ovarian; M14 melanoma; NCI-H23 lung; SF-295 CNS; SN12C renal; U251 CNS; HL-60(TB) leukemia; PC-3 prostate; MCF7 breast.
Holding throughout (experiment): NCI anticancer screen, dose series, 48 h

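96-well plates; 48 h exposure; 5 concentrations. Endpoints by linear interpolation between flanking doses. Not reached: highest tested concentration assigned. TGI: total growth inhibition.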 Bounds are passed on as bounds.

Take `O=C1c2ccccc2C(=O)C2C3c4ccccc4C(c4ccccc43)C12` (stereo unspecified): the TGI in the experiment on A549 NSCLC is greater than 100 µM; in the experiment with EKVX NSCLC, 68.5 µM; with HCC-2998 colon, 88.8 µM; with HOP-62 NSCLC it was greater than 100 µM; in the experiment with IGROV1 ovarian, 78.3 µM; in the experiment with M14 melanoma, greater than 100 µM. Moreover, the TGI in the experiment with NCI-H23 lung is greater than 100 µM; in the experiment with SF-295 CNS, 31.5 µM; in the experiment with SN12C renal, 61.5 µM; with U251 CNS, greater than 100 µM.

`O=C(O)C(Cc1cnc[nH]1)N=Cc1nc(-c2ccccc2)oc1O` (stereo unspecified): the TGI in the experiment on A549 NSCLC, with EKVX NSCLC, in the experiment with HCC-2998 colon, in the experiment with HL-60(TB) leukemia, in the experiment with HOP-62 NSCLC and in the experiment on IGROV1 ovarian was greater than 100 µM throughout. Besides, the TGI in the experiment on M14 melanoma, with NCI-H23 lung, in the experiment on SF-295 CNS, in the experiment with SN12C renal and in the experiment on U251 CNS was greater than 100 µM throughout.

On to `Cc1ccc(S(=O)C[C@@]2(C(F)F)NC(=O)NC2=O)cc1` (stereo partly specified), for which the TGI in the experiment with A549 NSCLC, in the experiment with EKVX NSCLC, in the experiment on HCC-2998 colon, in the experiment on HL-60(TB) leukemia, with HOP-62 NSCLC and in the experiment with IGROV1 ovarian was greater than 100 µM each time. Moreover, the TGI in the experiment with M14 melanoma, in the experiment with NCI-H23 lung, in the experiment on PC-3 prostate, in the experiment on SF-295 CNS and in the experiment on U251 CNS was greater than 100 µM in each case.

`O=C1SC(c2ccccc2)(c2ccccc2)c2ccccc21`: the TGI in the experiment on A549 NSCLC, in the experiment on EKVX NSCLC, in the experiment with HCC-2998 colon, with HL-60(TB) leukemia, in the experiment on HOP-62 NSCLC and with IGROV1 ovarian was greater than 100 µM in each case. Moreover, the TGI in the experiment on M14 melanoma, in the experiment on NCI-H23 lung, with SF-295 CNS, in the experiment on SN12C renal and in the experiment on U251 CNS was greater than 100 µM each time.

As to `CC(=O)[O-].CC(=O)[O-].O=C(N/N=C/c1cc(Cl)cc(Cl)c1[OH2+])c1ccncc1.[Zn+2]`, the TGI with A549 NSCLC, in the experiment on EKVX NSCLC, in the experiment with HCC-2998 colon, in the experiment with HL-60(TB) leukemia, in the experiment with HOP-62 NSCLC and with IGROV1 ovarian was greater than 100 µM in each case. Besides, the TGI with M14 melanoma, in the experiment on NCI-H23 lung, in the experiment on SF-295 CNS, with SN12C renal and with U251 CNS was greater than 100 µM each time.

In the case of `CC(C)CCNC(=O)c1ccc(CNC(=O)/C=C/c2csc(-c3ccccc3)n2)cc1`, the TGI in the experiment with A549 NSCLC is greater than 100 µM; in the experiment with EKVX NSCLC, greater than 100 µM; in the experiment on HCC-2998 colon, greater than 100 µM; in the experiment on HOP-62 NSCLC it was 37.4 µM; in the experiment with IGROV1 ovarian it was greater than 100 µM; with M14 melanoma, greater than 100 µM. The TGI is greater than 100 µM in the experiment on MCF7 breast; greater than 100 µM with NCI-H23 lung; greater than 100 µM in the experiment with PC-3 prostate; greater than 100 µM with SF-295 CNS; greater than 100 µM in the experiment on SN12C renal; 96.8 µM in the experiment on U251 CNS.

For the compound `CN(C)CS/C(N)=N\C(O)C(Cl)(Cl)Cl` (stereo unspecified), the TGI with A549 NSCLC, in the experiment on EKVX NSCLC, in the experiment with HCC-2998 colon, in the experiment with HOP-62 NSCLC, in the experiment with IGROV1 ovarian and in the experiment on M14 melanoma was greater than 100 µM throughout. In addition, the TGI in the experiment with NCI-H23 lung, in the experiment on PC-3 prostate, in the experiment with SF-295 CNS, with SN12C renal and in the experiment on U251 CNS was greater than 100 µM each time.

`Cc1ccc(NC(=O)C(=O)C2NC(=S)NC2=O)c([N+](=O)[O-])c1` (stereo unspecified): the TGI in the experiment on A549 NSCLC, with EKVX NSCLC, with HCC-2998 colon, with HL-60(TB) leukemia, in the experiment with HOP-62 NSCLC and in the experiment with IGROV1 ovarian was greater than 100 µM in each case. For the same compound, the TGI in the experiment on M14 melanoma, in the experiment with NCI-H23 lung, in the experiment on SF-295 CNS, in the experiment on SN12C renal and in the experiment on U251 CNS was greater than 100 µM in each case.

For the compound `COC(=O)c1cc(-c2ccc(-c3ccc(O)cc3)cc2)cc(-c2ccc(-c3ccc(O)cc3)cc2)c1`, the TGI came out at 20.9 µM with A549 NSCLC; 25.2 µM in the experiment with EKVX NSCLC; 33 µM in the experiment with HCC-2998 colon; 27.7 µM with HOP-62 NSCLC; 21.1 µM with IGROV1 ovarian; 30.5 µM with M14 melanoma. Besides, the TGI in the experiment on MCF7 breast amounted to 25.9 µM; in the experiment on NCI-H23 lung it was 21 µM; in the experiment with PC-3 prostate, 31 µM; with SF-295 CNS, 20.2 µM; in the experiment with SN12C renal, 27 µM.

As for `Cc1ccc(S(=O)(=O)N/N=C/c2oc(-c3ccccc3Cl)c(-c3ccccc3Cl)c2[N+](=O)[O-])cc1`, the TGI in the experiment with A549 NSCLC is greater than 100 µM; with EKVX NSCLC, greater than 100 µM; in the experiment with HCC-2998 colon, 47.9 µM; in the experiment on HL-60(TB) leukemia it was 39.9 µM; in the experiment with HOP-62 NSCLC it was 43.5 µM; with IGROV1 ovarian, 73.3 µM. Moreover, the TGI in the experiment on M14 melanoma is greater than 100 µM; with NCI-H23 lung it was 29.3 µM; in the experiment with SF-295 CNS, greater than 100 µM; in the experiment on SN12C renal it was 66.6 µM.

As to `C[N+](C)(C)Cc1c(CC#N)[nH]c2ccccc12`, the TGI with A549 NSCLC, in the experiment on EKVX NSCLC, in the experiment on HCC-2998 colon, with HL-60(TB) leukemia, in the experiment on HOP-62 NSCLC and in the experiment on IGROV1 ovarian was greater than 100 µM throughout. Further, the TGI with M14 melanoma, in the experiment with NCI-H23 lung, with SF-295 CNS, with SN12C renal and in the experiment on U251 CNS was greater than 100 µM throughout.

On to `O=c1[nH]c(=O)n(C2CC(O)C(CO)O2)cc1C#Cc1cc(C(F)(F)F)cc(C(F)(F)F)c1` (stereo unspecified), for which the TGI in the experiment on A549 NSCLC, in the experiment on EKVX NSCLC, in the experiment on HCC-2998 colon, in the experiment with HL-60(TB) leukemia, in the experiment with HOP-62 NSCLC and with IGROV1 ovarian was greater than 100 µM in each case. For the same compound, the TGI is greater than 46.5 µM in the experiment with M14 melanoma; greater than 89.3 µM in the experiment on NCI-H23 lung; greater than 100 µM in the experiment on SF-295 CNS; greater than 100 µM in the experiment on SN12C renal; greater than 100 µM in the experiment with U251 CNS.

(Values after PubChem BioAssay (NCI).)
